# Measurements from US20020173523A1, “IMMUNOSUPPRESSION BY PHOTOCHEMOTHERAPY” (priority 1997, published 2002).
# Experiments:
# [1] = system: mice of BALB/c (H-2K^d) strain; assay: Rejection reactions upon transplantation of skin in mice, photochemotherapy with 664 nm laser light; assay type: in vivo; conditions: for Percentage (%) of number of the mice with the surviving and remaining skin graft transplanted: 1 mg/kg i.v., laser 664 nm 10 J/cm^2
# Protocol: The following experiment was conducted in order to evaluate the therapeutic effect of the photochemotherapeutical method of this invention for treating the rejection reactions raised upon the transplantation of skin in mice.
# Thus, as the mice (the recipient) which were to recieve a transplantation of skin, were used mice of BALB/c (H-2K^d) strain (ten mice per group). […] Thirty minutes after the intravenous injection of the test compound, a laser light at the wave length of 664 nm was irradiated onto the abdominal side of each recipient mouse at the laser output of 20 mW/cm^2, at the irradiated spots of a diameter of 18 mm and at a total laser fluence of 10 J/cm^2.
# On the other hand, mice of CH/HeN(H-2K^b) strain were used as the mice (the donor) which were to afford the graft of skin for the transplantation to the recipient. The graft of skin to be used for the skin transplantation was one piece of the tail skin of the donor mice which was cut into a piece of about 5 mm×5 mm. This graft of skin was transplanted on the back side of the recipient mouse in such a manner that hair of the back side of the mouse was firstly shaved off, then one region of the skin of the hair-shaved back side of mouse was stripped off and the skin graft was transplanted onto the skin-stripped region of the back side of the recipient mouse. This skin transplantation was performed twenty-four hours after the irradiation of laser light on the recipient mouse.
# Then, observation was made as to whether the skin graft so transplanted would fall off or not fall from the recipient mouse within the period of from the time of the skin transplantation to the 15 the days after the intravenous injection of the test compound.
# The number of the recipient mice which normally have the transplanted and surviving skin graft remaining on the back side of mouse was counted at each of the given days of observation. The ratio of the number of the graft-remaining mouse at the each day to the number of the mouse at 0 day was expressed as percentage (%), with that the number of the recipient mice at the 0 day being assumed as 100.
# Mice of the untreated group were those mice which received the skin transplantation only but neither received the administration of the test compound nor received the irradiation of laser light.
# CD-1 mice (male) = assay: Acute toxicity; assay type: in vivo
# BALB/c mice = assay: Contact hypersensitivity test: ear swelling after primary and secondary sensitization with picryl chloride, photochemotherapy with 664 nm laser light; assay type: in vivo; conditions: for Rate of Ear swelling, (%) (Average value ± Standard deviation): laser 664 nm, 10 J/cm^2, 30 min after dosing, untreated group = 100%, 24 h after secondary sensitization
# Description: After the intravenous injection, hair of the abdominal side of the mice was shaved off. Thirty minutes after the administration of the test compound, a laser light at a wave length of 664 nm was irradiated onto the exposed skin of the abdominal side of the mice to give a total fluence of 10 J/cm^2 under the conditions of the laser output of 20 mW/cm^2 and the radiated spots of a diameter of 18 mm.
# Five days after the primary sensitization, an aqueous solution containing 1% picryl chloride was applied to one ear of each mouse under test, to effect the secondary sensitization. Thus, there were prepared the treated groups of the test mice having a contact hypersensitibity.
# (iii) Twenty-four hours after the secondary sensitization, namely six days after the primary sensitization, measurements were made of the thickness of both the ears of each mouse under test by a thickness gauge, and the increases in the thickness of ears were calculated from the difference which was found between the thickness of the one ear having not received the application of picryl chloride and the thickness of the another ear having received the application of picryl chloride for the secondary sensitization. Then, the rates (%) of ear swelling of each mouse of the treated group of mice were evaluated, on such assumption that the average value of the increase in the thickness of the secondarily sensitized ears of the mice of the untreated group was regarded as amounting to 100%, in respect of the mice of the untreated group of mice where the mice were neither administered with the test compound, nor were irradiated with the laser light, but where the mice received only the primary and secondary sensitizations with picryl chloride.
compound,measurement,setting,value
C=Cc1c(C)c2cc3nc(c(CC(=O)N[C@@H](CC(=O)[O-])C(=O)[O-])c4[nH]c(cc5nc(cc1[nH]2)C(C)=C5CC)c(C)c4C(=O)[O-])[C@@H](CCC(=O)[O-])[C@@H]3C.[Na+].[Na+].[Na+].[Na+],Photo-toxicity reactions (result in words),Photo-toxicity test,"no reactions such as erythema, edema"
same,Percentage (%) of number of the mice with the surviving and remaining skin graft transplanted,[1]; 0th day (day of skin transplantation),100%
same,Percentage (%) of number of the mice with the surviving and remaining skin graft transplanted,[1]; 6th day,100%
same,Percentage (%) of number of the mice with the surviving and remaining skin graft transplanted,[1]; 7th day,80%
same,Percentage (%) of number of the mice with the surviving and remaining skin graft transplanted,[1]; 10th day,80%
same,Percentage (%) of number of the mice with the surviving and remaining skin graft transplanted,[1]; 11th day,80%
same,Percentage (%) of number of the mice with the surviving and remaining skin graft transplanted,[1]; 15th day,0%
same,Rejection reactions in transplantation of skin (result in words),"[1]; i.v., laser light at 664 nm",preventively suppressed
same,Percentage of the total mice tested with falling off of the skin graft,"[1]; within the period of 6th to 11th days, treated group",20%
same,LD50,CD-1 mice (male),164 mg/kg
same,"Rate of Ear swelling, (%) (Average value ± Standard deviation)",BALB/c mice; 0.001 mg/kg i.v.,54.4 ± 7.2%
same,"Rate of Ear swelling, (%) (Average value ± Standard deviation)",BALB/c mice; 0.01 mg/kg i.v.,53.2 ± 20.6%
same,"Rate of Ear swelling, (%) (Average value ± Standard deviation)",BALB/c mice; 0.05 mg/kg i.v.,33.3 ± 4.4%
same,"Rate of Ear swelling, (%) (Average value ± Standard deviation)",BALB/c mice; 0.1 mg/kg i.v.,27.8 ± 8.5%
same,Suppression of the ear swelling,"BALB/c mice; i.v. dosages of 0.001 mg/kg or more, then laser light",≥ 45%
same,Ear swelling in contact hypersensitivity testing (result in words),"BALB/c mice; i.v., laser light at 664 nm",remarkably be suppressed
